According to US20250195590A1, “PHAGE AND ALLICIN COMPOSITION FOR INFECTION TREATMENT” (GUANGZHOU MEDICAL UNIVERSITY, priority 2023, published 2025):
≈ marks a conversion by molar mass, not a printed value.

Experiments:
[1] = test system: Pseudomonas aeruginosa host bacteria; assay: Drug resistance of host bacteria; type: cell-based
[2] = test system: Pseudomonas aeruginosa phage vB_PaeP_GZMU_A1002; assay: Effect of allicin on phage potency; conditions: incubated 37° C. 3 h, paired sample T test, 0.05 level, FIG. 3
Procedure: The solution of Pseudomonas aeruginosa phage vB_PaeP_GZMU_A1002 is diluted to a certain extent, and 100 μL of the diluted phage is mixed with 100 μL of the host bacteria and incubated at 37° C. for 15 min. The incubation solution is mixed with 0.7% semisolid LB agar, spread evenly on top of 1.5% solid LB agar spread on a Petri dish in advance, and cultured in a constant temperature incubator at 37° C. for 8 h or overnight. After the culture, a number of light-transmitting plaques may be seen in the Petri dish. A number of light-transmissive phage spots are visible in the petri dish after incubation, and the optimal view is selected to have 30-300 phage spots in the field of view, and the potency is calculated as potency=(10×number of phage spots)/dilution.
The Pseudomonas aeruginosa phage vB_PaeP_GZMU_A1002 is diluted to 10-8, and 100 μL of phage is mixed with 100 μL of allicin. At the same time, 100 μL of phage is mixed with 100 μL of LB as the control group, which is repeated in parallel for three times, mixed and incubated at 37° C. for 3 h, and then the potency is measured.
In this embodiment, paired sample T test is used to determine whether allicin has an effect on phage titer.

[3] = test system: Pseudomonas aeruginosa; assay: Measurement of the minimum inhibitory concentration (micro broth dilution method); type: cell-based; conditions: allicin alone, preliminary experiment, FIG. 1
Procedure: (§1) The allicin is diluted to 7.5 mg/mL, 3.75 mg/mL, 0.375 mg/mL, 0.0375 mg/mL, 0.00375 mg/mL and 0.000375 mg/mL respectively, and the phage is diluted to 3×10^4 pfu/mL, 3×10^3 pfu/mL, 3×10^2 pfu/ml, and 3×10^1 pfu/ml respectively, and the host bacteria are diluted to 3×10^5 cfu/mL; allicin, phage, and host bacteria are aspirated 50 μL each and added into each well of the 96-well plate, then the OD600 value is measured, the OD600 value is measured again after overnight shaker incubation at 37° C. and 220 rpm, and the absorbance change value is calculated to determine the inhibition effect on the bacteria.
After the experiment, the experimental results are shown in FIG. 2, and the MIC of phage is 1×10^3 pfu/mL.

[4] = test system: Pseudomonas aeruginosa; assay: Bacteriostasis effect of phage in combination with allicin (combination experiment, OD600, FIC index); type: cell-based
Procedure: as §1
In the combination experiment, the bacteriostatic effect of allicin in different concentrations (i.e. allicin alone) is calculated and analyzed when the phage concentration is 0 pfu/mL.
In the combination experiment, the bacteriostatic effect of phages with different concentrations (that is, phages alone) is calculated and analyzed when the concentration of allicin is 0 μg/mL.
Different concentrations of allicin and phage are mixed in a 96-well plate by broth dilution method, and the OD600 value is measured. After overnight shaking table culture at 37° C. and 220 rpm, the OD600 value is measured again, and the chart is drawn.
Judging the combination effect according to the fractional inhibitory concentration (FIC) index^[6]: FIC=MIC (in combination with group A)/MIC (group A used alone)+MIC (in combination with group B)/MIC (group B used alone).
FIC index interpretation criteria: when the FIC index is less than 0.5, the two drugs are synergistic; when the FIC index is 0.5-1, the two drugs are mutually additive; when the FIC index is greater than 1 and less than 2, the two drugs are unrelated; when the FIC index is greater than 2, the two drugs are antagonistic.

NCC[C@H](O)C(=O)N[C@@H]1C[C@H](N)[C@@H](O[C@H]2O[C@H](CN)[C@@H](O)[C@H](O)[C@H]2O)[C@H](O)[C@H]1O[C@H]1O[C@H](CO)[C@@H](O)[C@H](N)[C@H]1O [Amikacin]
Drug resistance of host bacteria ([1]; strain P. aeruginosa′-5): Resistant

C[C@H]1[C@H](NC(=O)/C(=N\OC(C)(C)C(=O)O)c2csc(N)n2)C(=O)N1S(=O)(=O)O [Aztreonam]
Drug resistance of host bacteria ([1]; strain B- P. aeruginosa-029): Resistant | Drug resistance of host bacteria ([1]; strain B- P. aeruginosa-037): Resistant | Drug resistance of host bacteria ([1]; strain P. aeruginosa-2 (r74)): Resistant | Drug resistance of host bacteria ([1]; strain P. aeruginosa-4): Resistant | Drug resistance of host bacteria ([1]; strain P. aeruginosa-13): Resistant | Drug resistance of host bacteria ([1]; strain P. aeruginosa-14): Resistant | Drug resistance of host bacteria ([1]; strain P. aeruginosa-22): Resistant | Drug resistance of host bacteria ([1]; strain P. aeruginosa-25): Resistant | Drug resistance of host bacteria ([1]; strain P. aeruginosa-26): Resistant | Drug resistance of host bacteria ([1]; strain P. aeruginosa-27): Resistant | Drug resistance of host bacteria ([1]; strain P. aeruginosa-30): Resistant | Drug resistance of host bacteria ([1]; strain P. aeruginosa′-3): Resistant | Drug resistance of host bacteria ([1]; strain P. aeruginosa′-4): Resistant | Drug resistance of host bacteria ([1]; strain P. aeruginosa′-5): Resistant | Drug resistance of host bacteria ([1]; strain P. aeruginosa′-10): Resistant

CO/N=C(\C(=O)N[C@@H]1C(=O)N2C(C(=O)[O-])=C(C[N+]3(C)CCCC3)CS[C@H]12)c1csc(N)n1 [Cefepime]
Drug resistance of host bacteria ([1]; strain B- P. aeruginosa-029): Resistant | Drug resistance of host bacteria ([1]; strain P. aeruginosa-2 (r74)): Resistant | Drug resistance of host bacteria ([1]; strain P. aeruginosa-24): Resistant | Drug resistance of host bacteria ([1]; strain P. aeruginosa-30): Resistant | Drug resistance of host bacteria ([1]; strain P. aeruginosa′-5): Resistant

O=C(O)c1cn(C2CC2)c2cc(N3CCNCC3)c(F)cc2c1=O [Ciprofloxacin]
Drug resistance of host bacteria ([1]; strain B- P. aeruginosa-029): Resistant | Drug resistance of host bacteria ([1]; strain B- P. aeruginosa-035): Resistant | Drug resistance of host bacteria ([1]; strain B- P. aeruginosa-037): Resistant | Drug resistance of host bacteria ([1]; strain B- P. aeruginosa-041): Resistant | Drug resistance of host bacteria ([1]; strain B- P. aeruginosa-042): Resistant | Drug resistance of host bacteria ([1]; strain B-P. AERUGINOSA-027): Resistant | Drug resistance of host bacteria ([1]; strain P. aeruginosa-25): Resistant | Drug resistance of host bacteria ([1]; strain P. aeruginosa-29): Resistant

NC[C@H]1O[C@H](O[C@H]2[C@H](O)[C@@H](O[C@H]3O[C@H](CO)[C@@H](O)[C@H](N)[C@H]3O)[C@H](N)C[C@@H]2N)[C@H](N)C[C@@H]1O [Tobramycin]
Drug resistance of host bacteria ([1]; strain P. aeruginosa-29): Resistant

C=CCS[S+]([O-])CC=C (centres unmarked) [allicin]
effect of allicin on phage potency (titer) [2]: no negative effect | MIC [3]: 1250 µg/mL (≈ 7.7 mM) | MIC ([4]; Pseudomonas aeruginosa, combination experiment, phage concentration 0 pfu/mL, FIG. 4, read-out: MIC of allicin alone): 1250 µg/mL | OD600 ([4]; allicin alone 1.25 mg/mL, FIG. 4): about 0 | decrease of amount when used in combination as compared to singly ([4]; allicin with phage): three orders of magnitude | best combination dosage, allicin ([4]; in combination with 1×10^2 pfu/mL phage, FIG. 6): 1.25 µg/mL | optimal concentration for combination, allicin ([4]; with 1×10^2 pfu/mL phage, FIG. 6): 1/1000

Piperacillin/Tazobactam
Drug resistance of host bacteria ([1]; strain B- P. aeruginosa-029): Resistant | Drug resistance of host bacteria ([1]; strain B- P. aeruginosa-037): Resistant | Drug resistance of host bacteria ([1]; strain P. aeruginosa-2 (r74)): Resistant | Drug resistance of host bacteria ([1]; strain P. aeruginosa-14): Resistant | Drug resistance of host bacteria ([1]; strain P. aeruginosa-23): Resistant | Drug resistance of host bacteria ([1]; strain P. aeruginosa-26): Resistant | Drug resistance of host bacteria ([1]; strain P. aeruginosa-30): Resistant | Drug resistance of host bacteria ([1]; strain P. aeruginosa-32): Resistant | Drug resistance of host bacteria ([1]; strain P. aeruginosa′-3): Resistant | Drug resistance of host bacteria ([1]; strain P. aeruginosa′-4): Resistant | Drug resistance of host bacteria ([1]; strain P. aeruginosa′-5): Resistant | Drug resistance of host bacteria ([1]; strain P. aeruginosa′-6): Resistant | Drug resistance of host bacteria ([1]; strain P. aeruginosa′-15): Resistant
